Data reported in US8327467B2, “Anthranilic acid derivative or salt thereof” (Toyama Chemical Co., Ltd., priority 2005, dated 2012).

What was measured:
[1] = tested on: type II collagen-induced arthritis; assay: Type II collagen-induced arthritis in mice; format: in vivo; conditions: male DBA/1 J mice, 10 mg/kg orally once a day from the 21st day to the 35th day
Protocol: Type II Collagen-Induced Arthritis in Mice
Eight-week old male DBA/1 J mice were used (Charles River Laboratories Japan Inc.). 4 mg/mL bovine type II collagen (Collagen Gijutsu Kenshukai) dissolved in 0.01 mol/L of acetic acid aqueous solution and an equal amount of Freund's complete adjuvant (Chondorex) containing 1 mg/mL of killed tuberculosis bacillus were added to prepare an emulsion, and 0.1 mL thereof was intradermally injected at the base of tail. Similar treatment was conducted on the 21st day to cause arthritis. The test compound was suspended in 0.5% methylcellulose aqueous solution, and 10 mg/kg was orally administered once a day from the 21st day to the 35th day. In the control group,0.5% methylcellulose aqueous solution was administered in the same manner. The severity of arthritis was estimated by scoring at zero point for an animal without change; one point for an animal with swelling at the one or two finger joint or light swelling only at the carpal or tarsal joint; two points for an animal with severe swelling at the carpal or tarsal joint or with swelling at three or more finger joints; three points for an animal with severe swelling along the whole foreleg or hindleg and thus counting 12 points at the maximum for the four limbs as arthritis score. […] The inhibitory rate was determined by the following expression. […]

MMP-13 = MMP-13 production inhibition test; format: cell-based; conditions: 30 μmol/L; human cartilage derived cell line SW1353, IL-1β 10 ng/mL, 16 hours after stimulation, MMP-13 in culture supernatant by ELISA; read-out: Inhibition rate (%) at 30 μmol/L
Protocol: MMP-13 Production Inhibition Test
6.8×10^3 human cartilage derived cell line SW1353 cells were suspended in 100 μL of Dulbecco modified Eagle's medium supplemented with 10% fetal calf serum, plated on 96-well plates and cultured for 3 days. After the culture medium was changed to Dulbecco modified Eagle's medium containing 0.2% lactalbumin hydrolysate and the cells were cultured for 6 hours, test compounds were added and then IL-1β was added to obtain the final concentration of 10 ng/mL 1 hour later. 16 hours after the stimulation, supernatant was collected and the amount of MMP-13 in the culture supernatant was determined with an ELISA kit (Amersham). The inhibition rate was calculated from the amount of MMP-13 in the presence of a test compound assuming that the amount of MMP-13 was 100% in the absence of the test compound.

SMILES | inhibitory action on arthritis (arthritis score) [1] | inhibitory action on bone destruction (bone destruction score, X-ray on the 36th day) [1] | inhibition at 30 µM (MMP-13) [%]
O=C(O)c1ccc(CCc2ccccc2)cc1Nc1ccc(F)cc1 [Example 38, 2-(4-Fluoroanilino)-4-phenethylbenzoic acid] | exhibited inhibitory action | exhibited inhibitory action | 97
O=C(O)c1ccc(-c2cccc(Cl)c2)cc1Nc1cccc(O)c1 [Example 271, 4-(3-chlorophenyl)-2-((3-hydroxyphenyl)amino)benzoic acid] | – | – | 97
O=C(O)c1ccc(-c2ccc(OC(F)(F)F)cc2)cc1Nc1ccc(F)cc1 [Example 222, 2-(4-Fluoroanilino)-4-(4-(trifluoromethoxy)phenyl)benzoic acid] | – | – | 98
Cc1ccc(Nc2cc(CCc3ccccc3)ccc2C(=O)O)c(C)c1 [Example 172, 2-(2,4-Dimethylanilino)-4-phenethylbenzoic acid] | – | – | 97
Cc1ccccc1Nc1cc(-c2ccc(NS(C)(=O)=O)cc2)ccc1C(=O)O [Example 273, 4-(4-(methanesulfonamido)phenyl)-2-(2-methylanilino)benzoic acid] | – | – | 83
O=C(O)c1ccc(-c2ccccc2)cc1Nc1cccc2cccnc12 [Example 340, 4-Phenyl-2-((quinolin-8-yl)amino)benzoic acid] | – | – | 97
O=C(O)c1ccc(CCc2ccc(OC(F)(F)F)cc2)cc1Nc1ccc(F)cc1 [Example 259, 2-(4-fluoroanilino)-4-(2-(4-(trifluoromethoxy)phenyl)ethyl)benzoic acid] | – | – | 96
Cc1cccc(Nc2cc(CCc3ccccc3)ccc2C(=O)O)c1C [Example 173, 2-(2,3-Dimethylanilino)-4-phenethylbenzoic acid] | – | – | 97
O=C(O)c1ccc(CCc2ccccc2)cc1Nc1cccc(Cl)c1 [Example 200, 2-(3-chloroanilino)-4-phenethylbenzoic acid] | – | – | 97
O=C(O)c1ccc(-c2cccc3[nH]ccc23)cc1Nc1ccc(F)cc1 [Example 234, 2-(4-fluoroanilino)-4-(1H-indol-4-yl)benzoic acid] | – | – | 97
O=C(O)c1ccc(Oc2ccccc2)cc1Nc1ccccc1 [Example 46, 2-Anilino-4-phenoxybenzoic acid] | – | – | 93
O=C(O)c1ccc(NS(=O)(=O)c2ccccc2)cc1Nc1ccc(F)cc1 [Example 91, 4-(Benzenesulfonamido)-2-(4-fluoroanilino)benzoic acid] | – | – | 53
COc1ccccc1-c1ccc(C(=O)O)c(Nc2ccc(F)cc2)c1 [Example 3, 2-(4-fluoroanilino)-4-(2-methoxyphenyl)benzoic acid] | – | – | 53
COc1ccc(-c2ccc(C(=O)O)c(Nc3ccc(F)cc3)c2)cc1 [Example 9, 2-(4-fluoroanilino)-4-(4-methoxyphenyl)benzoic acid] | – | – | 93
